Measurements from patent publication US12171864B2, “Biological self-assembled nanocrystal injection having a lymphatic targeting function and preparation method” (SHENZHEN CHINA RESOURCES JIUCHUANG MEDICAL AND …, priority 2017, dated 2024).
Where a name gives a salt, the structure may show the parent alone.

Legend:
[1] = tested on: lymph nodes; assay: Effect of pH on the drug targeting ability (lymph node staining); assay type: in vivo, Kunming mice
Text: Mitoxantrone hydrochloride was used as a model drug. The pH of the injection was adjusted to 1.5, 2.0, 2.5, 3.5, 4.5, 5.5, and 6.0, respectively. The mode of administration of interstitial injection was selected for subcutaneous injection in the paws of Kunming mice. At the pre-set time points, the mice were sacrificed by cervical dislocation, and the first, second and third classes of lymph nodes of the mice were removed for observation of staining.

[2] = Effect of pH on the drug stability (drug content after 0.22 μm filtration); assay type: physicochemical; details: filtered 0.22 μm
Experimental: Mitoxantrone hydrochloride was used as a model drug. The pH of the injection was adjusted to 1.5, 2.0, 2.5, 3.5, 4.5, 5.5, 6.0, 6.5, and 7.0, respectively. At one hour after adjusting the pH value, the content of the drug was determined after filtration through a 0.22 μm membrane. When the pH was between 1.5 and 6.0, the drug content was from 98.45±0.61% to 101.72±0.20%.

[3] = tested on: injection site; assay: Effect of the osmotic pressure on the irritation of the injection site (H&E staining); assay type: in vivo, Kunming mice
Text: (§1) Mitoxantrone hydrochloride was used as a model drug. The osmotic pressure of the injection was adjusted to 112, 196, 285, 307, 1503, 2317, and 3011 mmol/Kg, respectively. The mode of administration of interstitial injection was selected for subcutaneous injection in the paws of Kunming mice. At the pre-set time points, the mice were sacrificed by cervical dislocation, and the administration sites of the mice were taken for H&E staining to evaluate local irritation.

[4] = tested on: lymph nodes; assay: Effect of the osmotic pressure on the drug targeting ability (lymph node staining); assay type: in vivo, Kunming mice
Text: as §1, with “the first, second and third classes” for “the administration sites”, “of lymph nodes” for “of the mice”, “were removed” for “were taken”, “for observation of staining.” for “for H&E staining to evaluate local irritation.”

O=C1c2c(O)ccc(O)c2C(=O)c2c(NCCNCCO)ccc(NCCNCCO)c21 [Mitoxantrone hydrochloride]
color of third class of lymph nodes ([1]; pH 2.0, 2.5 or 6.0, subcutaneous injection in the paws): light blue | staining of lymph nodes ([1]; pH between 2.0 and 6.0, subcutaneous injection in the paws): the three classes of lymph nodes could be stained | staining of lymph nodes ([1]; pH between 3.5 and 5.5, subcutaneous injection in the paws): all the three classes of lymph nodes could be stained into dark blue | staining of lymph nodes ([1]; pH less than 2.0, subcutaneous injection in the paws): only one class of lymph nodes could be stained | drug content ([2]; pH 6.5, one hour after adjusting pH): 83.76±0.53% | drug content ([2]; pH 7.0, one hour after adjusting pH): 75.38±0.22% | local irritation of the injection site ([3]; osmotic pressure 3011 mmol/Kg, subcutaneous injection in the paws): redness and swelling occurred and the H&E staining showed local irritation | local irritation of the injection site ([3]; other osmotic pressure values (112, 196, 285, 307, 1503, 2317 mmol/Kg)): did not show obvious local irritation | color of third class of lymph nodes ([4]; osmotic pressure 285 or 2317 mmol/Kg): light blue | staining of lymph nodes ([4]; osmotic pressure between 285 and 2317 mmol/Kg): all the three classes of lymph nodes could be stained | staining of lymph nodes ([4]; osmotic pressure between 307 and 1503 mmol/Kg): all the three classes of lymph nodes could be stained into dark blue | staining of lymph nodes ([4]; osmotic pressure less than 285 mmol/Kg): only one class of lymph nodes could be stained
